According to patent US8541460B2, “PDK-1/Akt signaling inhibitors” (The Ohio State University, priority 2003, dated 2013):

Assays:
SK-OV-3 = assay: NCI DTP cell line screen (SRB), Ovarian Cancer; assay type: cell-based, human
Protocol: (§1) Screening of compounds 70 and 71 against several cancer cell lines The human tumor cell lines of the cancer screening panel are grown in RPMI 1640 medium containing 5% fetal bovine serum and 2 mM L-glutamine. For a typical screening experiment, cells are inoculated into 96 well microtiter plates in 100 μL at plating densities ranging from 5,000 to 40,000 cells/well depending on the doubling time of individual cell lines. After cell inoculation, the microtiter plates are incubated at 37° C., 5% CO2, 95% air and 100% relative humidity for 24 h prior to addition of experimental drugs.
(§2) After 24 h, two plates of each cell line are fixed in situ with TCA, to represent a measurement of the cell population for each cell line at the time of drug addition (Tz). Experimental drugs are solubilized in dimethyl sulfoxide at 400-fold the desired final maximum test concentration and stored frozen prior to use. At the time of drug addition, an aliquot of frozen concentrate is thawed and diluted to twice the desired final maximum test concentration with complete medium containing 50 μg/ml gentamicin. Additional four, 10-fold or ½ log serial dilutions are made to provide a total of five drug concentrations plus control. Aliquots of 100 μl of these different drug dilutions are added to the appropriate microtiter wells already containing 100 μl of medium, resulting in the required final drug concentrations.
(§3) Following drug addition, the plates are incubated for an additional 48 h at 37° C., 5% CO2, 95% air, and 100% relative humidity. For adherent cells, the assay is terminated by the addition of cold TCA. Cells are fixed in situ by the gentle addition of 50 μl of cold 50% (w/v) TCA (final concentration, 10% TCA) and incubated for 60 minutes at 4° C. The supernatant is discarded, and the plates are washed five times with tap water and air dried. Sulforhodamine B (SRB) solution (100 μl) at 0.4% (w/v) in 1% acetic acid is added to each well, and plates are incubated for 10 minutes at room temperature. After staining, unbound dye is removed by washing five times with 1% acetic acid and the plates are air dried. Bound stain is subsequently solubilized with 10 mM trizma base, and the absorbance is read on an automated plate reader at a wavelength of 515 nm. For suspension cells, the methodology is the same except that the assay is terminated by fixing settled cells at the bottom of the wells by gently adding 50 μl of 80% TCA (final concentration, 16% TCA). Using the seven absorbance measurements [time zero, (Tz), control growth, (C), and test growth in the presence of drug at the five concentration levels (Ti)], the percentage growth is calculated at each of the drug concentrations levels. Percentage growth inhibition is calculated as: [(Ti−Tz)/(C−Tz)]×100 for concentrations for which Ti>/=Tz [(Ti−Tz)/Tz]×100 for concentrations for which Ti<Tz
(§4) Three dose response parameters are calculated for each experimental agent. […] The drug concentration resulting in total growth inhibition (TGI) is calculated from Ti=Tz. […] Values are calculated for each of these three parameters if the level of activity is reached; however, if the effect is not reached or is exceeded, the value for that parameter is expressed as greater or less than the maximum or minimum concentration tested.
(§5) The methods described were used to test compounds 70 and 71 on a panel of sixty cell lines under a screening service provided by the Developmental Therapeutics Program at the National Institutes of Health. Shown in FIG. 1C are 1, RPMI-8226 leukemia cells; 2; NCI-H322M non-small cell lung cancer cells; 3, HT29 colon cancer cells; 4, U251 CNS cancer cells; 5, SK-MEL-28 melanoma cancer cells; 6, SK-OV-3 ovarian cancer cells; 7, RXF 393 renal cancer cells; 8, PC-3 prostate cancer cells; 9, MDA-MB-231 breast cancer cells.

RXF 393 = assay: NCI DTP cell line screen (SRB), Renal Cancer; assay type: cell-based, human; conditions: RXF 393
Protocol: as §1, §2, §3, §4, §5

CAKI-1 = assay: NCI DTP cell line screen (SRB), Renal Cancer; assay type: cell-based, human
Protocol: as §1, §2, §3, §4, §5

ACHN = assay: NCI DTP cell line screen (SRB), Renal Cancer; assay type: cell-based, human
Protocol: as §1, §2, §3, §4, §5

UO-31 = assay: NCI DTP cell line screen (SRB), Renal Cancer; assay type: cell-based, human
Protocol: as §1, §2, §3, §4, §5

A549/ATCC = assay: NCI DTP cell line screen (SRB), Non-Small Cell Lung Cancer; assay type: cell-based
Protocol: as §1, §2, §3, §4, §5

NCI-H23 = assay: as above; assay type: cell-based
Protocol: as §1, §2, §3, §4, §5

EKVX = assay: as above; assay type: cell-based
Protocol: as §1, §2, §3, §4, §5

## NCC(=O)Nc1ccc(-n2nc(C(F)(F)F)cc2-c2ccc3c(ccc4ccccc43)c2)cc1 [Compound 70, 2-Amino-N-{4-[5-(2-phenanthrenyl)-3-(trifluoromethyl)-1H-pyrazol-1-yl]-phenyl}-acetamide]
SK-OV-3
  TGI: 2.96E−06
SK-OV-3; Log10 Concentration −4.0
  Percent Growth: −24%
SK-OV-3; Log10 Concentration −5.0
  Percent Growth: −79%
SK-OV-3; Log10 Concentration −6.0
  Percent Growth: 71%
SK-OV-3; Log10 Concentration −7.0
  Percent Growth: 98%
SK-OV-3; Log10 Concentration −8.0
  Percent Growth: 91%
RXF 393; Log10 Concentration −4.0
  Percent Growth: 10%
RXF 393; Log10 Concentration −5.0
  Percent Growth: −56%
RXF 393; Log10 Concentration −6.0
  Percent Growth: 56%
RXF 393; Log10 Concentration −7.0
  Percent Growth: 75%
RXF 393; Log10 Concentration −8.0
  Percent Growth: 91%
CAKI-1; Log10 Concentration −4.0
  Percent Growth: −44%
CAKI-1; Log10 Concentration −5.0
  Percent Growth: −75%
CAKI-1; Log10 Concentration −6.0
  Percent Growth: 42%
CAKI-1; Log10 Concentration −7.0
  Percent Growth: 95%
CAKI-1; Log10 Concentration −8.0
  Percent Growth: 87%
CAKI-1; in M (unit assumed)
  TGI: 2.27E−06
ACHN; Log10 Concentration −4.0
  Percent Growth: −16%
ACHN; Log10 Concentration −5.0
  Percent Growth: −60%
ACHN; Log10 Concentration −6.0
  Percent Growth: 70%
ACHN; Log10 Concentration −7.0
  Percent Growth: 102%
ACHN; Log10 Concentration −8.0
  Percent Growth: 94%
ACHN; in M (unit assumed)
  TGI: 3.45E−06
UO-31; Log10 Concentration −4.0
  Percent Growth: −36%
UO-31; Log10 Concentration −5.0
  Percent Growth: −64%
UO-31; Log10 Concentration −6.0
  Percent Growth: 68%
UO-31; Log10 Concentration −7.0
  Percent Growth: 84%
UO-31; Log10 Concentration −8.0
  Percent Growth: 84%
UO-31; in M (unit assumed)
  TGI: 3.29E−06
A549/ATCC
  TGI: 2.96E−06
A549/ATCC; Log10 Concentration −4.0
  Percent Growth: −31%
A549/ATCC; Log10 Concentration −5.0
  Percent Growth: −57%
A549/ATCC; Log10 Concentration −6.0
  Percent Growth: 51%
A549/ATCC; Log10 Concentration −7.0
  Percent Growth: 86%
A549/ATCC; Log10 Concentration −8.0
  Percent Growth: 102%
NCI-H23
  TGI: 2.87E−06
NCI-H23; Log10 Concentration −4.0
  Percent Growth: −66%
NCI-H23; Log10 Concentration −5.0
  Percent Growth: −79%
NCI-H23; Log10 Concentration −6.0
  Percent Growth: 67%
NCI-H23; Log10 Concentration −7.0
  Percent Growth: 102%
NCI-H23; Log10 Concentration −8.0
  Percent Growth: 101%
EKVX
  TGI: 3.25E−06
EKVX; Homo sapiens, read-out: LC50
  CC50: 7.08 µM
EKVX; Log10 Concentration −4.0
  Percent Growth: −65%
EKVX; Log10 Concentration −5.0
  Percent Growth: −72%
EKVX; Log10 Concentration −6.0
  Percent Growth: 75%
EKVX; Log10 Concentration −7.0
  Percent Growth: 100%
EKVX; Log10 Concentration −8.0
  Percent Growth: 110%
